Experimental data: patent publication US12435060B2, “Acylamino bridged heterocyclic compound, and composition and application thereof” (BEIJING SCITECH-MQ PHARMACEUTICALS LIMITED, priority 2019, dated 2025)

system: HT29 cells; assay: Inhibition of cell necrosis (CCK8 method), induced programmed necrosis of HT29 cells; type: cell-based; conditions: Homo sapiens, HT-29; rescue from necrosis induced by TNF-α 20 ng/mL, AT-406 1 μM, Z-VAD-FMK 20 μM; 16-20 hours; CCK-8, OD 450 nm
Summary of the method: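 Rescue from programmed necrosis was scored by CCK-8 absorbance at 450 nm after 16-20 h of TNF-α (20 ng/mL), AT-406 (1 μM) and Z-VAD-FMK (20 μM) at 37 °C, 5% CO2. HT29 cells had received compound 30 min earlier across nine 4-fold dilutions (top 25000 nM final). IC50 came from % inhibition relative to uninduced and induced-only wells.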

First: O=C(Nc1cc(-c2cc(OCCC3CCOCC3)ccc2Cl)c(F)cn1)c1nnc(CC2CCCCC2)[nH]1 [Example 429, N-(4-(2-chloro-5-(2-(tetrahydro-2H-pyran-4-yl)ethoxy)phenyl)-5-fluoropyridin-2-yl)-5-(cyclohexylmethyl)-4H-1,2,4-triazole-3-carboxamide]
Second: Cc1cnc(NC(=O)c2nnc(CC3CCCCC3)[nH]2)cc1-c1cc(OCCC2CCOCC2)ccc1F [Example 336, 5-(cyclohexylmethyl)-N-(4-(2-fluoro-5-(2-(tetrahydro-2H-pyran-4-yl)ethoxy)phenyl)-5-methylpyridin-2-yl)-4H-1,2,4-triazole-3-carboxamide]
The IC50 of the first is lower: no more than 100 nM for the first, 1000 to 10000 nM for the second. The first is the more potent here.

`Cc1ccc(OCCN(C)C)cc1-c1ccnc(NC(=O)c2nnc(Cc3ccccc3)[nH]2)c1` [Example 134, 5-benzyl-N-(4-(5-(2-(dimethylamino)ethoxy)-2-methylphenyl)pyridin-2-yl)-4H-1,2,4-triazole-3-carboxamide] and `CCN(CC)CCOc1ccc(C)c(-c2ccnc(NC(=O)c3nnc(Cc4ccccc4)[nH]3)c2)c1` [Example 135, 5-benzyl-N-(4-(5-(2-(diethylamino)ethoxy)-2-methylphenyl)pyridin-2-yl)-4H-1,2,4-triazole-3-carboxamide] cannot be ordered by IC50: 100 to 1000 nM for the first, no more than 100 nM for the second.

`CCC(O)(CC)CCCOc1ccc(C)c(-c2cc(NC(=O)c3nnc(Cc4ccccc4F)[nH]3)ncc2F)c1` [Example 242, N-(4-(5-((4-ethyl-4-hydroxyhexyl)oxy)-2-methylphenyl)-5-fluoropyridin-2-yl)-5-(2-fluorobenzyl)-4H-1,2,4-triazole-3-carboxamide] and `CC(C)(O)CCCOc1ccc(F)c(-c2ccnc(NC(=O)c3nnc(Cc4ccccc4F)[nH]3)c2)c1` [Example 313, 5-(2-fluorobenzyl)-N-(4-(2-fluoro-5-((4-hydroxy-4-methylpentyl)oxy)phenyl)pyridin-2-yl)-4H-1,2,4-triazole-3-carboxamide] cannot be ordered by IC50: no more than 100 nM for the first, 100 to 1000 nM for the second.

`COCCOc1ccc(Cl)c(-c2ccnc(NC(=O)c3nnc(Cc4ccccc4)[nH]3)c2)c1` [Example 379, 5-benzyl-N-(4-(2-chloro-5-(2-methoxyethoxy)phenyl)pyridin-2-yl)-4H-1,2,4-triazole-3-carboxamide] and `Cc1ccc(OCCCO)cc1-c1ccnc(NC(=O)c2nnc(Cc3ccccc3)[nH]2)c1` [Example 140, 5-benzyl-N-(4-(5-(3-hydroxylpropoxy)-2-methylphenyl)pyridin-2-yl)-4H-1,2,4-triazole-3-carboxamide] cannot be ordered by IC50: 100 to 1000 nM for the first, no more than 100 nM for the second.

`Cc1ccc(OCCCC(C)(C)O)cc1-c1ccnc(NC(=O)c2nnc(CC3CCCC3)o2)c1` [Example 174, 5-(cyclopentylmethyl)-N-(4-(5-((4-hydroxy-4-methylpentyl)oxy)-2-methylphenyl)pyridin-2-yl)-4H-1,3,4-oxadiazole-2-carboxamide] and `CC(C)OCCOc1ccc(Cl)c(-c2ccnc(NC(=O)c3nnc(CC4CCCC4)[nH]3)c2)c1` [Example 389, N-(4-(2-chloro-5-(2-isopropoxyethoxy)phenyl)pyridin-2-yl)-5-(cyclopentylmethyl)-4H-1,2,4-triazole-3-carboxamide] cannot be ordered by IC50: 100 to 1000 nM for the first, no more than 100 nM for the second.

`CCOCCOc1ccc(C(F)(F)F)c(-c2ccnc(NC(=O)c3nnc(CC4CCCCC4)[nH]3)c2)c1` [Example 286, 5-(cyclohexylmethyl)-N-(4-(5-(2-ethoxyethoxy)-2-(trifluoromethyl)phenyl)pyridin-2-yl)-4H-1,2,4-triazole-3-carboxamide] and `CC(C)(O)CCCOc1ccc(C(F)(F)F)c(-c2ccnc(NC(=O)c3nnc(Cc4cccc(F)c4)[nH]3)c2)c1` [Example 256, 5-(3-fluorobenzyl)-N-(4-(5-((4-hydroxy-4-methylpentyl)oxy)-2-(trifluoromethyl)phenyl)pyridin-2-yl)-4H-1,2,4-triazole-3-carboxamide] cannot be ordered by IC50: no more than 100 nM for the first, no more than 100 nM for the second.

`COCCCC(O)c1ccc(C)c(-c2ccnc(NC(=O)c3nnc(Cc4ccccc4)[nH]3)c2)c1` (stereo not shown) [Example 484, 5-benzyl-N-(4-(5-(1-hydroxyl-4-methoxybutyl)-2-methylphenyl)pyridin-2-yl)-4H-1,2,4-triazole-3-carboxamide] gave an IC50 of no more than 100 nM.
